Results published in patent US9163013B2, “Use of 1H-indazole-3-carboxamide compounds as glycogen synthase kinase 3 beta inhibitors” (AZIENDE CHIMICHE RIUNITE ANGELINI FRANCESCO A.C.R.A.F. …, priority 2012, dated 2015).
Counter-ions that a name gives are not always drawn.

Key:
Assay in all cases: Kinase selectivity panel
Assay type in all cases: biochemical
[1] = biological target: GRK3/BARK2 (h) (ADRBK2) (Homo sapiens (Human), UniProt P35626); settings: duplicate, read-out: % inhibition of control values, GRK3/BARK2 (h) (ADRBK2)
Procedure: (§1) (a) Compound 1 was tested against a panel of 60 kinases in order to assess its selectivity. The assays were chosen taking into consideration the diversity of assay families.
(§2) Human recombinant kinases were incubated in the presence of specific peptide substrates plus ATP for different times (10, 15, 30, 60 or 90 minutes) at 22° C. Phosphorylated substrate was detected by LANCE or HTRF technology (CISBIO, MA, USA).
(§3) Compound 1 was tested at 10 μM in duplicate.
(§4) The results are expressed as a percent of inhibition of control specific activity obtained in the presence of the test compound 1 and are reported in the following Table 5.
(§5) (b) Compounds 7, 12, 21 and 24 were tested against the same panel of 60 kinases under the same conditions described above for compound 1.
(§6) The results are expressed as a percent of inhibition of control specific activity obtained in the presence of the test compounds and are reported in the following Table 6.

[2] = biological target: CaMK4 (h) (Homo sapiens (Human), UniProt Q16566); settings: duplicate, read-out: % inhibition of control values, CaMK4 (h)
Procedure: as §1, §2, §3, §4, §5, §6

[3] = biological target: CDC2/CDK1 (h) (cycB) (Homo sapiens (Human), UniProt P06493); settings: duplicate, read-out: % inhibition of control values, CDC2/CDK1 (h) (cycB)
Procedure: as §1, §2, §3, §4, §5, §6

[4] = biological target: EphB4 kinase (h) (Homo sapiens (Human), UniProt P54760); settings: duplicate, read-out: % inhibition of control values, EphB4 kinase (h)
Procedure: as §1, §2, §3, §4, §5, §6

[5] = biological target: JAK2 (h) (Homo sapiens (Human), UniProt O60674); settings: duplicate, read-out: % inhibition of control values, JAK2 (h)
Procedure: as §1, §2, §3, §4, §5, §6

[6] = biological target: ERK1 (h) (Homo sapiens (Human), UniProt P27361); settings: duplicate, read-out: % inhibition of control values, ERK1 (h)
Procedure: as §1, §2, §3, §4, §5, §6

[7] = biological target: AurB/Aur1 kinase (h) (Homo sapiens (Human), UniProt Q96GD4); settings: duplicate, read-out: % inhibition of control values, AurB/Aur1 kinase (h)
Procedure: as §1, §2, §3, §4, §5, §6

[8] = biological target: PKCgamma (h) (Homo sapiens (Human), UniProt P05129); settings: duplicate, read-out: % inhibition of control values, PKCgamma (h)
Procedure: as §1, §2, §3, §4, §5, §6

[9] = biological target: CDK5/p35 (h) (Homo sapiens (Human), UniProt Q00535); settings: duplicate, read-out: % inhibition of control values, CDK5/p35 (h)
Procedure: as §1, §2, §3, §4, §5, §6

[10] = biological target: TAOK2 (TAO1) (h) (Homo sapiens (Human), UniProt Q9UL54); settings: duplicate, read-out: % inhibition of control values, TAOK2 (TAO1) (h)
Procedure: as §1, §2, §3, §4, §5, §6

[11] = biological target: HGK (h) (MAP4K4) (Homo sapiens (Human), UniProt O95819); settings: duplicate, read-out: % inhibition of control values, HGK (h) (MAP4K4)
Procedure: as §1, §2, §3, §4, §5, §6

[12] = biological target: MYT1 kinase (h) (Homo sapiens (Human), UniProt Q99640); settings: duplicate, read-out: % inhibition of control values, MYT1 kinase (h)
Procedure: as §1, §2, §3, §4, §5, §6

[13] = biological target: PhKgamma 2 (h) (Homo sapiens (Human), UniProt P15735); settings: duplicate, read-out: % inhibition of control values, PhKgamma 2 (h)
Procedure: as §1, §2, §3, §4, §5, §6

[14] = biological target: ERK2 (h) (P42mapk) (Homo sapiens (Human), UniProt P28482); settings: duplicate, read-out: % inhibition of control values, ERK2 (h) (P42mapk)
Procedure: as §1, §2, §3, §4, §5, §6

[15] = biological target: IGF1R kinase (h) (Homo sapiens (Human), UniProt P08069); settings: duplicate, read-out: % inhibition of control values, IGF1R kinase (h)
Procedure: as §1, §2, §3, §4, §5, §6

[16] = biological target: MAPKAPK2 (h) (Homo sapiens (Human), UniProt P49137); settings: duplicate, read-out: % inhibition of control values, MAPKAPK2 (h)
Procedure: as §1, §2, §3, §4, §5, §6

[17] = biological target: DLK1 (h) (MAP3K12) (Homo sapiens (Human), UniProt Q12852); settings: duplicate, read-out: % inhibition of control values, DLK1 (h) (MAP3K12)
Procedure: as §1, §2, §3, §4, §5, §6

[18] = biological target: Akt1/PKBalpha (h) (Homo sapiens (Human), UniProt P31749); settings: duplicate, read-out: % inhibition of control values, Akt1/PKBalpha (h)
Procedure: as §1, §2, §3, §4, §5, §6

[19] = biological target: TRKA (h) (Homo sapiens (Human), UniProt P04629); settings: duplicate, read-out: % inhibition of control values, TRKA (h)
Procedure: as §1, §2, §3, §4, §5, §6

[20] = biological target: DCAMKL1 (h) (Homo sapiens (Human), UniProt O15075); settings: duplicate, read-out: % inhibition of control values, DCAMKL1 (h)
Procedure: as §1, §2, §3, §4, §5, §6

[21] = biological target: CHK1 (h) (Homo sapiens (Human), UniProt O14757); settings: duplicate, read-out: % inhibition of control values, CHK1 (h)
Procedure: as §1, §2, §3, §4, §5, §6

[22] = biological target: JAK1 (h) (Homo sapiens (Human), UniProt P23458); settings: duplicate, read-out: % inhibition of control values, JAK1 (h)
Procedure: as §1, §2, §3, §4, §5, §6

[23] = biological target: IKKalpha (h) (Homo sapiens (Human), UniProt O15111); settings: duplicate, read-out: % inhibition of control values, IKKalpha (h)
Procedure: as §1, §2, §3, §4, §5, §6

[24] = biological target: Pim2 kinase (h) (Homo sapiens (Human), UniProt Q9P1W9); settings: duplicate, read-out: % inhibition of control values, Pim2 kinase (h)
Procedure: as §1, §2, §3, §4, §5, §6

[25] = biological target: p38delta kinase (h) (Homo sapiens (Human), UniProt O15264); settings: duplicate, read-out: % inhibition of control values, p38delta kinase (h)
Procedure: as §1, §2, §3, §4, §5, §6

Chain of ERK1 (h) (P27361 whole entry): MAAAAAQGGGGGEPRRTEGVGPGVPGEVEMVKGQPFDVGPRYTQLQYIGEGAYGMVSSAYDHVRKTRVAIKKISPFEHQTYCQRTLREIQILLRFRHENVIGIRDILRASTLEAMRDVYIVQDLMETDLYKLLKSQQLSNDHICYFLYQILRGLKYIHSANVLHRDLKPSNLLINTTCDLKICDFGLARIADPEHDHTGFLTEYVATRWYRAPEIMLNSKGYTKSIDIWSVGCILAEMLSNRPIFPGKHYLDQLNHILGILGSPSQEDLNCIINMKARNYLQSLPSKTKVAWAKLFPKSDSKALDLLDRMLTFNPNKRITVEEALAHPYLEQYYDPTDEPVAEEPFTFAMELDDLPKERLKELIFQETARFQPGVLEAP
Chain of Akt1/PKBalpha (h) (P31749 whole entry): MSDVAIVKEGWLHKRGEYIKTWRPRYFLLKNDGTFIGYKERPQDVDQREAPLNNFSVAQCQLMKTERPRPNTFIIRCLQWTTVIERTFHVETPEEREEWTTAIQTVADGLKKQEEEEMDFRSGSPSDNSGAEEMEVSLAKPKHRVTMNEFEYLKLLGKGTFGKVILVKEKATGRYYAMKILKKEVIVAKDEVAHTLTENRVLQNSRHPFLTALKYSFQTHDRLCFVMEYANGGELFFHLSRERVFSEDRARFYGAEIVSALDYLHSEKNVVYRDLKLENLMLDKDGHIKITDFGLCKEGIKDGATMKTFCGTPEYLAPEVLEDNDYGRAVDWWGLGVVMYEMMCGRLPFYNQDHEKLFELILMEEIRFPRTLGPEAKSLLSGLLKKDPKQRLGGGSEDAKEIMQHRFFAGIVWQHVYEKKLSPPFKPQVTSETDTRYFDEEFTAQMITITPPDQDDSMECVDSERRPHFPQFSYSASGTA
Chain of EphB4 kinase (h) (P54760 16-987): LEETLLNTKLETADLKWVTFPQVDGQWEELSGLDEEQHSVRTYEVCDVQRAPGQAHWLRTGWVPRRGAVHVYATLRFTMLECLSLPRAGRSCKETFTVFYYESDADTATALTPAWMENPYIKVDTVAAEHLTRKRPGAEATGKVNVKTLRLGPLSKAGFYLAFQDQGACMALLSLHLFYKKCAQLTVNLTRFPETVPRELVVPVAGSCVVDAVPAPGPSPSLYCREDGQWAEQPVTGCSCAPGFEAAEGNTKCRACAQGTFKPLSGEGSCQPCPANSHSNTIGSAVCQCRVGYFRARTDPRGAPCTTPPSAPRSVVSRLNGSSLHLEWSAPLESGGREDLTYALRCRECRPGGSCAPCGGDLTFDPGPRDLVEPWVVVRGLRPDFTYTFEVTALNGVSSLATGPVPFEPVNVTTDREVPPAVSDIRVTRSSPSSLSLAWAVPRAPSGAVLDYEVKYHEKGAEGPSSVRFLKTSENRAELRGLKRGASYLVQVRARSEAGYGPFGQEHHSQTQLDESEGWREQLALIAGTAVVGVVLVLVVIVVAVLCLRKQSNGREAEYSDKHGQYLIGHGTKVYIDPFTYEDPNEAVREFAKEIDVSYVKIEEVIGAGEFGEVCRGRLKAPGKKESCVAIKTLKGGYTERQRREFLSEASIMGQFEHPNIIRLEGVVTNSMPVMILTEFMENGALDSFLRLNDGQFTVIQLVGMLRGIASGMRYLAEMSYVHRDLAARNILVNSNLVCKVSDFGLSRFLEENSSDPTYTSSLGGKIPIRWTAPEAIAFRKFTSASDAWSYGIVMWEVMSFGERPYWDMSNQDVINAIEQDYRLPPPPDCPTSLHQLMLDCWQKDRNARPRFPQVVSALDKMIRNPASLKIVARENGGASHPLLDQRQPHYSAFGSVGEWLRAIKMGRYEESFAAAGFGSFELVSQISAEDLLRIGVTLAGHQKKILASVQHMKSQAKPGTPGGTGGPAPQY
Chain of TAOK2 (TAO1) (h) (Q9UL54 whole entry): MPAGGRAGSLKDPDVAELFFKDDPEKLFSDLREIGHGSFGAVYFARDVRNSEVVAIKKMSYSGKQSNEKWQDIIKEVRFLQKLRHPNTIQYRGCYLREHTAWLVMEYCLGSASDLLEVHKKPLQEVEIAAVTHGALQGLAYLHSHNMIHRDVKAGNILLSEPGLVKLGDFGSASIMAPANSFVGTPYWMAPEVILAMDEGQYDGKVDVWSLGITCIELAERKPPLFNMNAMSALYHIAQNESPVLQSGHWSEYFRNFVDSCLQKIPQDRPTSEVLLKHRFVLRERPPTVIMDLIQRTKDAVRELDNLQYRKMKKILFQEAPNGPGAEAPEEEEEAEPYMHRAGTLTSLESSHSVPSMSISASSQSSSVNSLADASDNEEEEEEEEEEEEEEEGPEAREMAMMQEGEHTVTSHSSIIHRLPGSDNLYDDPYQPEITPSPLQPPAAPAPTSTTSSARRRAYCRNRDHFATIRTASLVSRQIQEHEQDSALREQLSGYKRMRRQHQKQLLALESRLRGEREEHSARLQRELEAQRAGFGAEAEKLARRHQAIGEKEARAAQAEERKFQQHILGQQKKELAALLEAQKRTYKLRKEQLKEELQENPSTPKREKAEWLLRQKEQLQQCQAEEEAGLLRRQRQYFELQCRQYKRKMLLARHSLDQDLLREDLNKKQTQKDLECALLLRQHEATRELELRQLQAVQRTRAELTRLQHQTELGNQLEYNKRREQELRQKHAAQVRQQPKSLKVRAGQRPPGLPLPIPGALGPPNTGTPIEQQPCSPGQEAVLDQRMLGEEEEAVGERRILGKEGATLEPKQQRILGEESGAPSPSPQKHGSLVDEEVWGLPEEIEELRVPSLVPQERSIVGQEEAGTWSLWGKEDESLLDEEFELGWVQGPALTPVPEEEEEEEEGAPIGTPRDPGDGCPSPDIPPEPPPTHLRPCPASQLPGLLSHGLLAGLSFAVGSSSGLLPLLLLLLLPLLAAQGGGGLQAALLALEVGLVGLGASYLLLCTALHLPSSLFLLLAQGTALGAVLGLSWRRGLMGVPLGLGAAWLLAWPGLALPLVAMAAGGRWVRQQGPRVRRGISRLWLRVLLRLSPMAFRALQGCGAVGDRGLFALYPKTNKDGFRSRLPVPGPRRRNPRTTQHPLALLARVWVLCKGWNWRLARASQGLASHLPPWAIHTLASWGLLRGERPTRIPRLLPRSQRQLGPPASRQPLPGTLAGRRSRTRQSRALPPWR
Chain of AurB/Aur1 kinase (h) (Q96GD4 whole entry): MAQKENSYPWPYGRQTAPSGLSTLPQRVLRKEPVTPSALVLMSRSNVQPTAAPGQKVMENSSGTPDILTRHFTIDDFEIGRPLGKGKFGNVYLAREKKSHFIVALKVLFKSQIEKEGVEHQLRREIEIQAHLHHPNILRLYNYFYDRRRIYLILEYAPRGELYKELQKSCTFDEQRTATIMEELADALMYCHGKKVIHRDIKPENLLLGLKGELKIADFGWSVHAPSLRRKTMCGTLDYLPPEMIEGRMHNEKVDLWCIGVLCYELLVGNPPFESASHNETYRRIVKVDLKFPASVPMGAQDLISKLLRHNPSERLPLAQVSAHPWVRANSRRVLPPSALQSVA
Chain of MAPKAPK2 (h) (P49137 whole entry): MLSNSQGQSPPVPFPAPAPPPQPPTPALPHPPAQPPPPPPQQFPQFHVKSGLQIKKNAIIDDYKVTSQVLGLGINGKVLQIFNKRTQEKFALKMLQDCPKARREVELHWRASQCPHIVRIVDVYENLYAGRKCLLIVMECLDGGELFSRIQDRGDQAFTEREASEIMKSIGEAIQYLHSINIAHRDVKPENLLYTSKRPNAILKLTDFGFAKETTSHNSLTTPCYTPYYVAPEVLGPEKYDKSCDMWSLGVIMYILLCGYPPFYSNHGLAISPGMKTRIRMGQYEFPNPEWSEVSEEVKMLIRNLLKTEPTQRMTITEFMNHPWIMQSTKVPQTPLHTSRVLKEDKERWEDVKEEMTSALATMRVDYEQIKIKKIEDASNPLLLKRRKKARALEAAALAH
Chain of CDC2/CDK1 (h) (cycB) (P06493 whole entry): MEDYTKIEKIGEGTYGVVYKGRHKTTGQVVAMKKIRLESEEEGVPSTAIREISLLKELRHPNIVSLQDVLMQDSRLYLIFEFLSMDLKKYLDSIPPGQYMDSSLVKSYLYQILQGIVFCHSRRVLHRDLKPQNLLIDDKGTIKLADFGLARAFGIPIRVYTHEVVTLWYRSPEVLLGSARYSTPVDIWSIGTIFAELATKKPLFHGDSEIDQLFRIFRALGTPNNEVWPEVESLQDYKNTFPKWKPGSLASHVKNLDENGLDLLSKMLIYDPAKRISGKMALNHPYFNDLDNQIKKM
Chain of CDC2/CDK1 (h) (cycB) (P14635 whole entry partner): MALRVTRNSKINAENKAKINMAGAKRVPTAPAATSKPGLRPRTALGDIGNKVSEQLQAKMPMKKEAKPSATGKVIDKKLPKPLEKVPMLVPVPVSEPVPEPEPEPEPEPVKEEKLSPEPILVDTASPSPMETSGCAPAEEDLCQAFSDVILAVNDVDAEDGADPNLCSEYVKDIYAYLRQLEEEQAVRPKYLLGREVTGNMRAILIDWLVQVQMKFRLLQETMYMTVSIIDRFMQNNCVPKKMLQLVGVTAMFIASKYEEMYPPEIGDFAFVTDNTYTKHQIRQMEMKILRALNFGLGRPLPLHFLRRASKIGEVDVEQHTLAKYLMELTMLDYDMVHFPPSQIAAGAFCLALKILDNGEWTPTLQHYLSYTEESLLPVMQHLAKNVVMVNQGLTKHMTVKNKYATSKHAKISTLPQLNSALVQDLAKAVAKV
Chain of CaMK4 (h) (Q16566 whole entry): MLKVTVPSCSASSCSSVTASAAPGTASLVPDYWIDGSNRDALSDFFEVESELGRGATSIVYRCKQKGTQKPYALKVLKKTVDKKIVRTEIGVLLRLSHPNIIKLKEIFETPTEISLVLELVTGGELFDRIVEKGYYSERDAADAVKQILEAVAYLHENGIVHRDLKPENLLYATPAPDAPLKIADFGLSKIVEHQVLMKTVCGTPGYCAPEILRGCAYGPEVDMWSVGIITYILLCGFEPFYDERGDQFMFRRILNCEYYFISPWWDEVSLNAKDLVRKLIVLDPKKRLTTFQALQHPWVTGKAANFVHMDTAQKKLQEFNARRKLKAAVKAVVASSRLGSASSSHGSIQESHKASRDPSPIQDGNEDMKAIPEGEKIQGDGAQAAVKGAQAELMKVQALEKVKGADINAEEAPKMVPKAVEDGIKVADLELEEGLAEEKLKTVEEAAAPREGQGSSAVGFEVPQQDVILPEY

| SMILES | inhibition at 10 µM [1] | inhibition at 10 µM [2] | inhibition at 10 µM [3] | inhibition at 10 µM [4] | inhibition at 10 µM [5] | inhibition at 10 µM [6] | inhibition at 10 µM [7] | inhibition at 10 µM [8] | inhibition at 10 µM [9] | inhibition at 10 µM [10] | inhibition at 10 µM [11] | inhibition at 10 µM [12] | inhibition at 10 µM [13] | inhibition at 10 µM [14] | inhibition at 10 µM [15] | inhibition at 10 µM [16] | inhibition at 10 µM [17] | inhibition at 10 µM [18] | inhibition at 10 µM [19] | inhibition at 10 µM [20] | further results |
| --- | --- | --- | --- | --- | --- | --- | --- | --- | --- | --- | --- | --- | --- | --- | --- | --- | --- | --- | --- | --- | --- |
| COc1ccncc1-c1ccc2[nH]nc(C(=O)NCC3CCN(Cc4ccc(C(=O)O)o4)CC3)c2c1 [Compound 21, 5-({4-[({[5-(4-Methoxypyridin-3-yl)-1H-indazol-3-yl]carbonyl}amino)methyl]piperidin-1-yl}methyl)furan-2-carboxylic acid formate] | 4% | 13% | 99% | 3% | 2% | 81% | 10% | 0% | 98% | 54% | 99% | 0% | 0% | 89% | 0% | 0% | 46% | 0% | 4% | 0% | inhibition at 10 µM [21]: 1%; inhibition at 10 µM [22]: 10%; inhibition at 10 µM [23]: 5%; inhibition at 10 µM [24]: 5%; inhibition at 10 µM [25]: 35% |
| COc1ccc2[nH]nc(C(=O)NCC3CCN(Cc4ccc(C(=O)O)o4)CC3)c2c1 [Compound 24, 5-{[4-({[(5-Methoxy-1H-indazol-3-yl)carbonyl]amino}methyl)piperidin-1-yl]methyl}furan-2-carboxylic acid] | 0% | 11% | 10% | 0% | 0% | 22% | 0% | 0% | 16% | 8% | 19% | 0% | 0% | 35% | 0% | 0% | 0% | 0% | 1% | 0% | inhibition at 10 µM [21]: 0%; inhibition at 10 µM [22]: 1%; inhibition at 10 µM [23]: 2%; inhibition at 10 µM [24]: 3%; inhibition at 10 µM [25]: 4% |
| COc1ccc2[nH]nc(C(=O)NCC3CCN(CCc4ccc(O)cc4)CC3)c2c1 [Compound 1, N-({1-[2-(4-hydroxyphenyl)ethyl]-piperidin-4-yl}methyl)-5-methoxy-1H-indazole-3-carboxamide] | 8% | 14% | 31% | 0% | 0% | 35% | 11% | 0% | 30% | 41% | 17% | 1% | 6% | 33% | 5% | 0% | 10% | 7% | 10% | 4% | inhibition at 10 µM [21]: 12%; inhibition at 10 µM [22]: 0%; inhibition at 10 µM [23]: 0%; inhibition at 10 µM [24]: 4%; inhibition at 10 µM [25]: 12% |
